Patent US20080269267A1, “KINASE INHIBITORS USEFUL FOR THE TREATMENT OF MYLEOPROLIFIC DISEASES AND OTHER PROLIFERATIVE DISEASES” (Deciphera Pharmaceuticals, LLC, priority 2007, published 2008)
Positions count from the first letter of the chain named.

How the values were obtained:
[1] = molecular target: T1, BaF3 cells transfected with wild type p210 BCR-Abl (Homo sapiens, UniProt P00519); experiment: Ba/F3 p210 whole cell proliferation assay (Cell Titer Blue, 72 hours); assay type: cell-based; conditions: 72 hours incubation; read-out: Ba/F3 p210 whole cell proliferation assay, antiproliferation IC50
T1 construct: fused on or other part: P11274 (Breakpoint cluster region protein)
Description: (§1) BaF3 cells (parental or transfected with the following: wild type p210 BCR-Abl and T315I p210 BCR-Abl was obtained from Professor Richard Van Etten (New England Medical Center, Boston, Mass.). Briefly, cells were grown in RPMI 1640 supplemented with 10% characterized fetal bovine serum (HyClone, Logan, Utah) at 37 degrees Celsius, 5% CO2, 95% humidity. Cells were allowed to expand until reaching 80% saturation at which point they were subcultured or harvested for assay use.
(§2) A serial dilution of test compound was dispensed into a 96 well black clear bottom plate (Corning, Corning, N.Y.). For each cell line, three thousand cells were added per well in complete growth medium. Plates were incubated for 72 hours at 37 degrees Celsius, 5% CO2, 95% humidity. At the end of the incubation period Cell Titer Blue (Promega, Madison, Wis.) was added to each well and an additional 4.5 hour incubation at 37 degrees Celsius, 5% CO2, 95% humidity was performed. Plates were then read on a BMG Fluostar Optima (BMG, Durham, N.C.) using an excitation of 544 nm and an emission of 612 nm. Data was analyzed using Prism software (Graphpad, San Diego, Calif.) to calculate IC50's.

[2] = molecular target: T2, T315I Abl kinase (SEQ ID NO:2) (Homo sapiens, UniProt P00519, T315I); experiment: T315I Abl kinase assay (pyruvate kinase/lactate dehydrogenase coupled); conditions: 1 h preincubation at 30° C., ATP 500 μM; read-out: Abl T315l Enzyme Assay, biochemical IC50
T2 construct: purchased deCode Genetics
T2 sequence (P00519 with tags, fused parts or gaps T315I): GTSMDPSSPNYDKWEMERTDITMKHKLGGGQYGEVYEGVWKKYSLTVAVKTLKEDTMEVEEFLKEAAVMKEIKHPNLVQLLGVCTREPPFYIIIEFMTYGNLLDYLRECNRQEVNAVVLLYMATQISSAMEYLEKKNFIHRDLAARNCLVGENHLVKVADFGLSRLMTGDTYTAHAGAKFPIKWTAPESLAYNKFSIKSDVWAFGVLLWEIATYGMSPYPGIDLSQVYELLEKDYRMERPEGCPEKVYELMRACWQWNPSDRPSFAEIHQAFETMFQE
Description: Abl Kinase (SEQ ID NO:2) Assay
Activity of T315I Abl kinase (SEQ ID NO:2) was determined by following the production of ADP from the kinase reaction through coupling with the pyruvate kinase/lactate dehydrogenase system (e.g., Schindler, et al. Science (2000) 289, 1938-1942). In this assay, the oxidation of NADH (thus the decrease at A340nm) was continuously monitored spectrophometrically. The reaction mixture (100 μl) contained Abl kinase (4.4 nM. […] Abl from deCode Genetics), peptide substrate (EAIYAAPFAKKK, 0.2 mM), MgCl2 (10 mM), pyruvate kinase (4 units), lactate dehydrogenase (0.7 units), phosphoenol pyruvate (1 mM), and NADH (0.28 mM) in 90 mM Tris buffer containing 0.2% octyl-glucoside and 1% DMSO, pH 7.5. Test compounds were incubated with T315I Abl (SEQ ID NO:2) and other reaction reagents at 30° C. for 1 h before ATP (500 μM) was added to start the reaction. The absorption at 340 nm was monitored continuously for 2 hours at 30° C. on Polarstar Optima plate reader (BMG). The reaction rate was calculated using the 1.0 to 2.0 h time frame. Percent inhibition was obtained by comparison of reaction rate with that of a control (i.e. with no test compound). IC50 values were calculated from a series of percent inhibition values determined at a range of inhibitor concentrations using software routines as implemented in the GraphPad Prism software package.

[3] = molecular target: T3, BaF3 cells transfected with T315I p210 BCR-Abl (Homo sapiens, UniProt P00519, T315I, cells depend on it); experiment: Ba/F3 p210 T315I whole cell proliferation assay (Cell Titer Blue, 72 hours); assay type: cell-based; conditions: 72 hours incubation; read-out: Ba/F3 p210 T315I whole cell proliferation assay, antiproliferation IC50
T3 construct: fused on or other part: P11274 (Breakpoint cluster region protein)
Description: as §1, §2

[4] = molecular target: T4, Abl kinase (SEQ ID NO:1) (Homo sapiens, UniProt P00519); experiment: Abl kinase assay (pyruvate kinase/lactate dehydrogenase coupled, ADP production); conditions: 2 h preincubation at 30° C., ATP 500 μM; read-out: Abl Enzyme Assay, biochemical IC50
T4 construct: purchased deCode Genetics
T4 sequence (P00519 with tags, fused parts or gaps): T2 sequence (P00519 with tags, fused parts or gaps T315I) with I94T
Description: Abl Kinase (SEQ ID NO:1) Assay
Activity of Abl kinase (SEQ ID NO:1) was determined by following the production of ADP from the kinase reaction through coupling with the pyruvate kinase/lactate dehydrogenase system (e.g., Schindler, et al. Science (2000) 289, 1938-1942). In this assay, the oxidation of NADH (thus the decrease at A340nm) was continuously monitored spectrophometrically. The reaction mixture (100 μl) contained Abl kinase (1 nM. Abl from deCode Genetics), peptide substrate (EAIYAAPFAKKK. 0.2 mM), MgCl2 (10 mM), pyruvate kinase (4 units), lactate dehydrogenase (0.7 units), phosphoenol pyruvate (1 mM), and NADH (0.28 mM) in 90 mM Tris buffer containing 0.2% octyl-glucoside and 3.5% DMSO, pH 7.5. Test compounds were incubated with Abl (SEQ ID NO:1) and other reaction reagents at 30° C. for 2 h before ATP (500 μM) was added to start the reaction. The absorption at 340 nm was monitored continuously for 2 hours at 30° C. on Polarstar Optima plate reader (BMG). The reaction rate was calculated using the 1.0 to 2.0 h time frame. Percent inhibition was obtained by comparison of reaction rate with that of a control (i.e. with no test compound). IC50 values were calculated from a series of percent inhibition values determined at a range of inhibitor concentrations using software routines as implemented in the GraphPad Prism software package.

Work on `CCc1cc(NC(=O)Nc2ccc(Oc3ccnc(-c4cnn(C(C)C)c4)c3)cc2F)n(-c2cccc(C#N)c2)n1` [Example 17, 1-(1-(3-cyanophenyl)-3-ethyl-1H-pyrazol-5-yl)-3-(2-fluoro-4-(2-(1-isopropyl-1H-pyrazol-4-yl)pyridin-4-yloxy)phenyl)urea] yielded a GI50 [1] of less than 0.1 µM, an IC50 [2] of less than 0.1 µM and a GI50 [3] of less than 0.1 µM. It also gave an IC50 [4] of less than 0.1 µM.

Work on `CCc1cc(NC(=O)Nc2ccc(Oc3ccnc(-c4cnn(C)c4)c3)cc2F)n(-c2ccc(CO)cc2)n1` [Example 19, 1-(3-ethyl-1-(4-(hydroxymethyl)phenyl)-1H-pyrazol-5-yl)-3-(2-fluoro-4-(2-(1-methyl-1H-pyrazol-4-yl)pyridin-4-yloxy)phenyl)urea] yielded a GI50 [1] of less than 0.1 µM, an IC50 [2] of less than 0.1 µM and a GI50 [3] of less than 0.1 µM. It also gave an IC50 [4] of less than 0.1 µM.

Work on `CC(C)n1cc(NC(=O)Nc2ccc(Oc3ccnc(-c4cnn(C)c4)c3)cc2F)c(-c2ccccc2)n1` [Example 21, 1-(2-fluoro-4-(2-(1-methyl-1H-pyrazol-4-yl)pyridin-4-yloxy)phenyl)-3-(1-isopropyl-3-phenyl-1H-pyrazol-4-yl)urea] yielded a GI50 [1] of less than 0.1 µM, an IC50 [2] of less than 0.1 µM and a GI50 [3] of less than 0.1 µM. For the same molecule, the IC50 [4] was less than 0.1 µM.

`CC(C)c1cc(NC(=O)Nc2ccc(Oc3ccnc(-c4cnn(C)c4)c3)cc2F)n(-c2cccc(F)c2)n1` [Example 24, 1-(2-fluoro-4-(2-(1-methyl-1H-pyrazol-4-yl)pyridin-4-yloxy)phenyl)-3-(1-(3-fluorophenyl)-3-isopropyl-1H-pyrazol-5-yl)urea] showed a GI50 [1] of less than 0.1 µM, an IC50 [2] of less than 0.1 µM and a GI50 [3] of less than 0.1 µM. The IC50 [4] was less than 0.1 µM.

`Cn1cc(-c2cc(Oc3ccc(NC(=O)Nc4cc(-c5ccccc5F)nn4C)c(F)c3F)ccn2)cn1` [Example 25, 1-(2,3-difluoro-4-(2-(1-methyl-1H-pyrazol-4-yl)pyridin-4-yloxy)phenyl)-3-(3-(2-fluorophenyl)-1-methyl-1H-pyrazol-5-yl)urea] showed a GI50 [1] of less than 1 µM, an IC50 [2] of less than 0.1 µM and a GI50 [3] of less than 10 µM. It also gave an IC50 [4] of less than 0.1 µM.
